Measured values published in patent US20240261424A1, “ANTIBODY DRUG CONJUGATE” (NATIONAL CANCER CENTER, priority 2020, published 2024).
Like-named read-outs stand apart in the source and are kept apart here. Where a SMILES comes first, the peptide text is derived from it. [ ]: non-standard residue; d: D form. The star is where a group is joined. Dolaproine = CO[C@@H]([C@@H]1CCCN1)[C@@H](C)C(=O)O; Dil = CC[C@H](C)[C@H](NC)[C@@H](CC(=O)O)OC; X1 = C[C@@H](N*)[C@@H](O)c1ccccc1; NMeV = CN[C@H](C(=O)O)C(C)C

Legend:
[1] = test system: human pancreatic adenocarcinoma cell line (BxPC-3); test: Cell-killing effect on BxPC-3; format: cell-based; conditions: read-out: IC50 values for BxPC-3
Description: (§1) The ADCs prepared above were evaluated in vitro for their cell-killing effects on human pancreatic adenocarcinoma cells by the following method.
(§2) RPMI-1640 supplemented with 10% fetal bovine serum and penicillin-streptomycin-[…] (×100) suspension was used as the culture medium. Human pancreatic adenocarcinoma BxPC-3, PSN-1, and HPAF-II were adjusted to 5000 cells/mL, 2000 cells/mL, and 5000 cells/mL, respectively, and seeded on 96-well plates at 100 μL/well and allowed to stand overnight in a CO2 incubator (37° C.).
(§3) The ADCs, Dxd single agent, and MMAE single agent were each adjusted with a culture solution so that the final concentration (in terms of MMAE and Dxd) was 0.1, 0.3, 1, 3, 10, 30, 100 nM, or the like, and were added at 100 μL/well to a 96-well plate inoculated with each human pancreatic adenocarcinoma, and then allowed to stand in a CO2 incubator (37° C.) for 6 days. Then, the culture medium containing the drug was removed with an aspirator, and the number of viable cells was measured by Cell Counting Kit-8 (manufactured by Dojindo Laboratories) according to the attached protocol. The reaction time of the reagent was three hours, and the absorbance was measured by SpectraMax Paradigm (manufactured by Molecular Devices). FIGS. 1A to 1E show the results of the cell-killing effects.

[2] = test system: human pancreatic adenocarcinoma cell line (PSN-1); test: Cell-killing effect on PSN-1; format: cell-based; conditions: read-out: IC50 values for PSN-1
Description: as §1, §2, §3

Row | Structure (SMILES) | IC50 ([1]; FIG. 1A, concentration in terms of MMAE and Dxd, 6 days, Cell Counting Kit-8) | IC50 ([2]; FIG. 1B, concentration in terms of MMAE and Dxd, 6 days, Cell Counting Kit-8) | IC50 ([1]; Homo sapiens, BXPC-3, 144 h) | IC50 ([2]; Homo sapiens, PSN1, 144 h)
1 | CC[C@H](C)[C@@H]([C@@H](CC(=O)N1CCC[C@H]1[C@H](OC)[C@@H](C)C(=O)N[C@H](C)[C@@H](O)c1ccccc1)OC)N(C)C(=O)[C@@H](NC(=O)[C@@H](NC)C(C)C)C(C)C [MMAE, monomethyl auristatin E] (H-[NMeV]V[Dil][Dolaproine]-X1) | 0.62 ± 0.04 nM | 0.73 ± 0.04 nM |  | 
2 | CC[C@@]1(O)C(=O)OCc2c1cc1n(c2=O)Cc2c-1nc1cc(F)c(C)c3c1c2[C@@H](NC(=O)CO)CC3 [Dxd] |  |  | 2.58 ± 0.26 nM | 7.92 ± 0.84 nM
